Experimental data reported in patent US4303785A, “Antitumor anthracycline antibiotics” (priority 1978, dated 1981).
Values after ≈ are worked out from the molar mass of the structure shown. Read-outs that look alike come from different tables or passages of the source.

How the values were obtained:
[1] = tested on: L1210 cells; test: animal or person; assay type: in vivo, CDF1 mice; conditions: for response vs control in vivo at 0.15 mg/kg / response vs control in vivo at 0.31 mg/kg / response vs control in vivo at 0.625 mg/kg / response vs control in vivo at 1.25 mg/kg / response vs control in vivo at 2.5 mg/kg / response vs control in vivo at 5 mg/kg: Mus musculus, L1210, ip, 1080 h
Experimental: D. Representative compounds of general formula I" were tested against experimental animal tumors as follows: […]
CDF1 mice were administered intraperitoneally (i.p.) with 1×10^5 cells/mouse of L1210 cells. After 24 hours had elapsed since inoculation, the mice were administered the test compounds intraperitoneally once daily for 10 consecutive days and observed for a 45 day period.
The antitumor activity was shown by the prolongation rate of survival day (T/C, %) to the survival day of control mice injected with physiological saline.

[2] = tested on: L1210 cells; test: Inhibition of 14C-uridine and 14C-thymidine incorporation (nucleic acid synthesis) in L1210 cells in culture (Table 5); assay type: cell-based; conditions: Mus musculus, L1210, 1 h, 60 min. at 37° C.
Experimental: The effect of the tetrahydropyranyl ether derivatives of formula I' on nucleic acid synthesis was examined as follows: […]
1×10^5 cells/ml. of L1210 cells were suspended in RPMI medium containing 10% calf serum, pre-cultivated at 37° C. for 1 to 2 hours in a CO2 incubator and then the test compounds were added to the medium at various concentrations. After 15 min. of incubation, ^14 C-uridine (0.05 μCi/ml.) or ^14 C-thymidine (0.05 μCi/ml.) was added and incubated at 37° C. for 60 min. Trichloroacetic acid (TCA) (10%) was added to the incubation medium to stop the reaction and precipitate the acid-insoluble materials, and then the precipitate was washed three times with 5 to 10% […]. The radioactivity was measured and expressed as 50% inhibition concentration of incorporation.

[3] = tested on: L1210 leukemia; test: Antitumor activity in BDF1 mice inoculated with L1210 leukemia cells (Table 6); assay type: in vivo; conditions: once daily for 10 days
Excerpt: As an example, BDF1 mice were inoculated intraperitoneally with 1×10^6 cells/mouse of L1210 leukemia cells.

[4] = tested on: L1210 leukemia cells; test: Growth inhibitory effect on L1210 cells in culture (Table 4); assay type: cell-based; conditions: Mus musculus, read-out: Inhibition Rate (growth)
Experimental: For example, L1210 cells (5×10^4 cells/ml.) were inoculated in RPMI 1640 medium (Roswell Park Memorial Institute 1640) containing 20% calf serum and cultivated at 37° C. in the presence of 0.1 and 0.5 μg./ml. of the test compounds in a CO2 incubator.

[5] = tested on: NADPH-cytochrome P450 reductase; test: Stability on rat hepatic NADPH-cytochrome P450 reductase: 7-deoxyaglycone formed (Table 7); assay type: in vitro ADME; conditions: 25° C., 25 min., nitrogen; substrate 0.1 mM, NADPH 0.2 mM, enzyme 4.6 μg./ml, pH 8.0
Experimental: C. The marked antitumor effects seen from A and B above were confirmed by the stability of the test compounds on the inactivation by hepatic NADPH-cytochrome P450 reductase. Specifically, NADPH-cytochrome P450 reductase purified from rat liver homogenate was incubated with the tetrahydropyranyl ether derivatives of formula I' at 25° C. for 25 min. in nitrogen gas phase, and the incubation product formed, 7-deoxyaglycone, was determined as shown in Table 7.

[6] = 2.5 mg/kg/day i.p., once daily for 10 days
[7] = 5 mg/kg/day i.p., once daily for 10 days
[8] = read-out: Antitumor Activity (T/C, prolongation rate of survival day), 0.15 mg/kg/day i.p., once daily for 10 days
[9] = read-out: Antitumor Activity (T/C, prolongation rate of survival day), 0.31 mg/kg/day i.p., once daily for 10 days
[10] = read-out: Antitumor Activity (T/C, prolongation rate of survival day), 0.625 mg/kg/day i.p., once daily for 10 days
[11] = read-out: Antitumor Activity (T/C, prolongation rate of survival day), 1.25 mg/kg/day i.p., once daily for 10 days
[12] = 0.15 mg/kg/day i.p., once daily for 10 days
[13] = 0.31 mg/kg/day i.p., once daily for 10 days
[14] = 0.625 mg/kg/day i.p., once daily for 10 days
[15] = 1.25 mg/kg/day i.p., once daily for 10 days
[16] = read-out: Antitumor Activity (T/C, prolongation rate of survival day), 2.5 mg/kg/day i.p., once daily for 10 days
[17] = 0.15 mg/kg/day i.p., once daily for 10 days, read-out: Antitumor Activity (T/C, prolongation rate of survival day)
[18] = 0.31 mg/kg/day i.p., once daily for 10 days, read-out: Antitumor Activity (T/C, prolongation rate of survival day)
[19] = 0.625 mg/kg/day i.p., once daily for 10 days, read-out: Antitumor Activity (T/C, prolongation rate of survival day)
[20] = read-out: Antitumor Activity (T/C, prolongation rate of survival day), 5 mg/kg/day i.p., once daily for 10 days

With `CCOC(C)O[C@@H]1[C@H](C)O[C@@H](O[C@H]2C[C@](O)(C(C)=O)Cc3c(O)c4c(c(O)c32)C(=O)c2c(OC)cccc2C4=O)C[C@@H]1N` (single isomer, unassigned) [Example 16-a, 4'-O-(1-ethyloxyethyl) daunomycin a] the “Antitumor Activity (T/C, prolongation rate of survival day)” value (shortened to “Antitumor Activity”) [1, 6] was 157%, the “Antitumor Activity” value [1, 7] was 217% and the response vs control in vivo at 0.15 mg/kg [1, 8] was 96%. The response vs control in vivo at 0.31 mg/kg [1, 9] was 96%, the response vs control in vivo at 0.625 mg/kg [1, 10] was 104% and the response vs control in vivo at 1.25 mg/kg [1, 11] was 102%.
`CCOC(C)O[C@@H]1[C@H](C)O[C@@H](O[C@H]2C[C@](O)(C(C)=O)Cc3c(O)c4c(c(O)c32)C(=O)c2c(OC)cccc2C4=O)C[C@@H]1N` (single isomer, unassigned) [Example 16-b, 4'-O-(1-ethyloxyethyl) daunomycin b] was tested, and the “Antitumor Activity” value [1, 12] was 90%, the “Antitumor Activity” value [1, 13] was 96% and the “Antitumor Activity” value [1, 14] was 108%. For the same compound, the “Antitumor Activity” value [1, 15] was 112%, the “Antitumor Activity” value [1, 6] was 133% and the “Antitumor Activity” value [1, 7] was 247%.
In the case of `COc1cccc2c1C(=O)c1c(O)c3c(c(O)c1C2=O)C[C@@](O)(C(C)=O)C[C@@H]3O[C@H]1C[C@H](N)[C@H](OC(C)OCC(C)C)[C@H](C)O1` (single isomer, unassigned) [Example 17-a, 4'-O-(1-isobutyloxyethyl) daunomycin a], the “Antitumor Activity” value [1, 7] is reported as 156%, the response vs control in vivo at 0.15 mg/kg [1, 8] is reported as 100% and the response vs control in vivo at 0.31 mg/kg [1, 9] is reported as 100%. It also gave a response vs control in vivo at 0.625 mg/kg [1, 10] of 100%, a response vs control in vivo at 1.25 mg/kg [1, 11] of 100% and a response vs control in vivo at 2.5 mg/kg [1, 16] of 119%.
For `COc1cccc2c1C(=O)c1c(O)c3c(c(O)c1C2=O)C[C@@](O)(C(C)=O)C[C@@H]3O[C@H]1C[C@H](N)[C@H](OC(C)OCC(C)C)[C@H](C)O1` (single isomer, unassigned) [Example 17-b, 4'-O-(1-isobutyloxyethyl) daunomycin b], the “Antitumor Activity” value [1, 12] was 100%, the “Antitumor Activity” value [1, 13] was 100% and the “Antitumor Activity” value [1, 14] was 100%. The “Antitumor Activity” value [1, 15] was 106%, the “Antitumor Activity” value [1, 6] was 113% and the “Antitumor Activity” value [1, 7] was 188%.
In the case of `CCCCOC(C)O[C@@H]1[C@H](C)O[C@@H](O[C@H]2C[C@](O)(C(C)=O)Cc3c(O)c4c(c(O)c32)C(=O)c2c(OC)cccc2C4=O)C[C@@H]1N` (single isomer, unassigned) [Example 18-a, 4'-O-(1-butyloxyethyl) daunomycin a], the “Antitumor Activity” value [1, 6] is reported as 116%, the “Antitumor Activity” value [1, 7] is reported as 144% and the response vs control in vivo at 0.15 mg/kg [1, 8] is reported as 110%. For the same compound, the response vs control in vivo at 0.31 mg/kg [1, 9] was 103%, the response vs control in vivo at 0.625 mg/kg [1, 10] was 110% and the response vs control in vivo at 1.25 mg/kg [1, 11] was 116%.
With `CCCCOC(C)O[C@@H]1[C@H](C)O[C@@H](O[C@H]2C[C@](O)(C(C)=O)Cc3c(O)c4c(c(O)c32)C(=O)c2c(OC)cccc2C4=O)C[C@@H]1N` (single isomer, unassigned) [Example 18-b, 4'-O-(1-butyloxyethyl) daunomycin b] the “Antitumor Activity” value [1, 12] was 103%, the “Antitumor Activity” value [1, 13] was 96% and the “Antitumor Activity” value [1, 14] was 110%. The “Antitumor Activity” value [1, 15] was 110%, the “Antitumor Activity” value [1, 6] was 151% and the “Antitumor Activity” value [1, 7] was 188%.
`COc1cccc2c1C(=O)c1c(O)c3c(c(O)c1C2=O)C[C@@](O)(C(=O)COC1CCCCO1)C[C@@H]3O[C@H]1C[C@H](N)[C@H](OC2CCCCO2)[C@H](C)O1` (single isomer, unassigned; isomer a) [4',14-di-O-PAa, 4',14-bis(O-tetrahydropyranyl)adriamycin (isomer a)] was tested, and the IC50 ([2]; thymidine, read-out: 50% Inhibition Concentration of 14C-Thymidine Incorporation) was 0.55 µg/mL (≈ 0.773 µM), the IC50 ([2]; uridine, read-out: 50% Inhibition Concentration of 14C-Uridine Incorporation) was 0.23 µg/mL (≈ 0.323 µM) and the “Antitumor Activity” value ([3]; 0.15 mg./kg./day i.p.) was 96%. The “Antitumor Activity” value ([3]; 0.3 mg./kg./day i.p.) was 103%, the “Antitumor Activity” value ([3]; 0.6 mg./kg./day i.p.) was 96% and the “Antitumor Activity” value ([3]; 1.25 mg./kg./day i.p.) was 109%. For the same compound, the “Antitumor Activity” value ([3]; 2.5 mg./kg./day i.p.) was 115%, the “Antitumor Activity” value ([3]; 5 mg./kg./day i.p.) was 154% and the inhibition at 0.1 µg/mL ([4]; L1210, 0.1 μg./ml.) was 37.5%. For the same compound, the inhibition at 0.5 µg/mL ([4]; L1210, 0.5 μg./ml.) was 80.8% and the “Product (7-Deoxyaglycone)” value [5] was 13.1 nmoles/tube.
For `COc1cccc2c1C(=O)c1c(O)c3c(c(O)c1C2=O)C[C@@](O)(C(=O)CO)C[C@@H]3O[C@H]1C[C@H](N)[C@H](OC2CCCO2)[C@H](C)O1` (some centres unmarked) [Example 4, 4'-O-tetrahydrofuranyl adriamycin], the “Antitumor Activity” value [1, 15] was 179%, the “Antitumor Activity” value [1, 6] was 360% and the “Antitumor Activity” value [1, 7] was 314%. The response vs control in vivo at 0.15 mg/kg [1, 17] was 105%, the response vs control in vivo at 0.31 mg/kg [1, 18] was 111% and the response vs control in vivo at 0.625 mg/kg [1, 19] was 136%.
Work on `COc1cccc2c1C(=O)c1c(O)c3c(c(O)c1C2=O)C[C@@](O)(C(=O)CO)C[C@@H]3O[C@H]1C[C@H](N)[C@H](OC2CCCC(COC(C)=O)O2)[C@H](C)O1` (some centres unmarked) [Example 6, 4'-O-(6-acetoxymethyltetrahydropyranyl) adriamycin] yielded a response vs control in vivo at 0.15 mg/kg [1, 8] of 100%, a response vs control in vivo at 0.31 mg/kg [1, 9] of 88% and a response vs control in vivo at 0.625 mg/kg [1, 10] of 106%. For the same compound, the response vs control in vivo at 1.25 mg/kg [1, 11] was 118%, the response vs control in vivo at 2.5 mg/kg [1, 16] was 118% and the response vs control in vivo at 5 mg/kg [1, 20] was 141%.
`COc1cccc2c1C(=O)c1c(O)c3c(c(O)c1C2=O)C[C@@](O)(C(C)=O)C[C@@H]3O[C@H]1C[C@H](N)[C@H](OC2CCCO2)[C@H](C)O1` (some centres unmarked) [Example 12, 4'-O-(tetrahydrofuranyl) daunomycin] gave a response vs control in vivo at 0.15 mg/kg [1, 17] of 99%, a response vs control in vivo at 0.31 mg/kg [1, 18] of 105% and a response vs control in vivo at 0.625 mg/kg [1, 19] of 111%. The response vs control in vivo at 1.25 mg/kg ([1]; 1.25 mg/kg/day i.p., once daily for 10 days, read-out: Antitumor Activity (T/C, prolongation rate of survival day)) was 111%, the response vs control in vivo at 2.5 mg/kg ([1]; 2.5 mg/kg/day i.p., once daily for 10 days, read-out: Antitumor Activity (T/C, prolongation rate of survival day)) was 160% and the response vs control in vivo at 5 mg/kg ([1]; 5 mg/kg/day i.p., once daily for 10 days, read-out: Antitumor Activity (T/C, prolongation rate of survival day)) was 346%.
`COC(=O)C1CCCC(O[C@@H]2[C@H](C)O[C@@H](O[C@H]3C[C@](O)(C(C)=O)Cc4c(O)c5c(c(O)c43)C(=O)c3c(OC)cccc3C5=O)C[C@@H]2N)O1` (some centres unmarked) [Example 15, 4'-O-(6-carbomethoxytetrahydropyranyl) daunomycin] was tested, and the response vs control in vivo at 0.15 mg/kg [1, 8] was 100%, the response vs control in vivo at 0.31 mg/kg [1, 9] was 100% and the response vs control in vivo at 0.625 mg/kg [1, 10] was 100%. For the same compound, the response vs control in vivo at 1.25 mg/kg [1, 11] was 100%, the response vs control in vivo at 2.5 mg/kg [1, 16] was 106% and the response vs control in vivo at 5 mg/kg [1, 20] was 131%.
